Experimental data from US20250367126A1, “SOFTGEL CAPSULE COMPRISING A H2 RECEPTOR ANTAGONIST” (KENVUE BRANDS LLC, priority 2024, published 2025).
Like-named read-outs stand apart in the source and are kept apart here.

Columns and labels:
[1] = Method: For this evaluation, excipients were added to clear glass vials at ambient temperature. […] The vials were attached to a Burrell Action Wrist Shaker (mechanical shaker) and agitated for approximately 60 hours (hrs) at ambient conditions.
After shaking for approximately 60 hrs, a first portion of the supernatant solution from each vial was submitted for chemical analysis. A second portion of the remaining dispersions was transferred to amber vials and stored at ambient conditions.

[2] = J Pharm Pharmacol 1993, 45:682-686, cited from earlier work
[3] = Acidified PEG 400 Solution with water [PEG 400 (59.7%) + acetic acid (30.0%) + water (10.3%)], 2 Weeks in Amber Vials
[4] = Acidified PEG 400 Solution with water [PEG 400 (59.7%) + acetic acid (30.0%) + water (10.3%)], 2 Weeks in Clear Vials
[5] = Acidified PEG 400 Solution with water [PEG 400 (59.7%) + acetic acid (30.0%) + water (10.3%)], Initial
[6] = Caprylocaproyl Polyoxyl-8 Glycerides NF (Labrasol), 2 Weeks in Amber Vials
[7] = Caprylocaproyl Polyoxyl-8 Glycerides NF (Labrasol), 2 Weeks in Clear Vials
[8] = Caprylocaproyl Polyoxyl-8 Glycerides NF (Labrasol), Initial
[9] = Medium Chain Triglycerides NF (MCT), 2 Weeks in Amber Vials
[10] = Medium Chain Triglycerides NF (MCT), 2 Weeks in Clear Vials
[11] = Medium Chain Triglycerides NF (MCT), Initial
[12] = Mono/Diglycerides of Capric/Caprylic Acid NF (Capmul MCM), 2 Weeks in Amber Vials
[13] = Mono/Diglycerides of Capric/Caprylic Acid NF (Capmul MCM), 2 Weeks in Clear Vials
[14] = Mono/Diglycerides of Capric/Caprylic Acid NF (Capmul MCM), Initial
[15] = Polyethylene Glycol 400, NF (PEG 400), 2 Weeks in Amber Vials
[16] = Polyethylene Glycol 400, NF (PEG 400), 2 Weeks in Clear Vials
[17] = Polyethylene Glycol 400, NF (PEG 400), Initial
[18] = Polyoxyl-35 Castor Oil NF (Kolliphor EL), 2 Weeks in Amber Vials
[19] = Polyoxyl-35 Castor Oil NF (Kolliphor EL), 2 Weeks in Clear Vials
[20] = Polyoxyl-35 Castor Oil NF (Kolliphor EL), Initial
[21] = Polysorbate 80 NF (Tween 80), 2 Weeks in Amber Vials
[22] = Polysorbate 80 NF (Tween 80), 2 Weeks in Clear Vials
[23] = Polysorbate 80 NF (Tween 80), Initial

Equilibrium solubility of famotidine, mg/g Solvent [1, 3]: 137 mg/g
Equilibrium solubility of famotidine, mg/g Total [1, 3]: 121 mg/g
Equilibrium solubility of famotidine, mg/g Solvent [1, 4]: 141 mg/g
Equilibrium solubility of famotidine, mg/g Total [1, 4]: 124 mg/g
Equilibrium solubility of famotidine, mg/g Solvent [1, 5]: 160 mg/g
Equilibrium solubility of famotidine, mg/g Total [1, 5]: 138 mg/g
Equilibrium solubility of famotidine, mg/g Solvent [1, 6]: 58 mg/g
Equilibrium solubility of famotidine, mg/g Total [1, 6]: 55 mg/g
Equilibrium solubility of famotidine, mg/g Solvent [1, 7]: 61 mg/g
Equilibrium solubility of famotidine, mg/g Total [1, 7]: 57 mg/g
Equilibrium solubility of famotidine, mg/g Solvent [1, 8]: 61 mg/g
Equilibrium solubility of famotidine, mg/g Total [1, 8]: 57 mg/g
Equilibrium solubility of famotidine, mg/g Solvent ([1]; Glacial acetic acid, Initial): 318 mg/g
Equilibrium solubility of famotidine, mg/g Total ([1]; Glacial acetic acid, Initial): 241 mg/g
Equilibrium solubility of famotidine, mg/g Solvent [1, 12]: 3 mg/g
Equilibrium solubility of famotidine, mg/g Total [1, 12]: 3 mg/g
Equilibrium solubility of famotidine, mg/g Solvent [1, 13]: 3 mg/g
Equilibrium solubility of famotidine, mg/g Total [1, 13]: 3 mg/g
Equilibrium solubility of famotidine, mg/g Solvent [1, 14]: 3 mg/g
Equilibrium solubility of famotidine, mg/g Total [1, 14]: 3 mg/g
Equilibrium solubility of famotidine, mg/g Solvent [1, 15]: 115 mg/g
Equilibrium solubility of famotidine, mg/g Total [1, 15]: 103 mg/g
Equilibrium solubility of famotidine, mg/g Solvent [1, 16]: 116 mg/g
Equilibrium solubility of famotidine, mg/g Total [1, 16]: 104 mg/g
Equilibrium solubility of famotidine, mg/g Solvent [1, 17]: 118 mg/g
Equilibrium solubility of famotidine, mg/g Total [1, 17]: 106 mg/g
Equilibrium solubility of famotidine, mg/g Solvent [1, 18]: 64 mg/g
Equilibrium solubility of famotidine, mg/g Total [1, 18]: 60 mg/g
Equilibrium solubility of famotidine, mg/g Solvent [1, 19]: 63 mg/g
Equilibrium solubility of famotidine, mg/g Total [1, 19]: 60 mg/g
Equilibrium solubility of famotidine, mg/g Solvent [1, 20]: 64 mg/g
Equilibrium solubility of famotidine, mg/g Total [1, 20]: 60 mg/g
Equilibrium solubility of famotidine, mg/g Solvent [1, 21]: 45 mg/g
Equilibrium solubility of famotidine, mg/g Total [1, 21]: 43 mg/g
Equilibrium solubility of famotidine, mg/g Solvent [1, 22]: 36 mg/g
Equilibrium solubility of famotidine, mg/g Total [1, 22]: 35 mg/g
Equilibrium solubility of famotidine, mg/g Solvent [1, 23]: 45 mg/g
Equilibrium solubility of famotidine, mg/g Total [1, 23]: 43 mg/g
Equilibrium solubility of famotidine, mg/g Solvent ([1]; Propylene Glycol USP, Initial): 17 mg/g
Equilibrium solubility of famotidine, mg/g Total ([1]; Propylene Glycol USP, Initial): 17 mg/g
solubility of famotidine (in words) ([1]; hydrophilic solvents (PEG 400, acidified PEG 400 solution with water, glacial acetic acid)): High solubility
Compound: NC(N)=Nc1nc(CSCCC(N)=NS(N)(=O)=O)cs1 [famotidine]
Equilibrium solubility of famotidine, mg/g Solvent [1, 9]: ND (“ND” means not detected, famotidine content was below 0.1 mg/g.)
Equilibrium solubility of famotidine, mg/g Total [1, 9]: ND (“ND” means not detected, famotidine content was below 0.1 mg/g.)
Equilibrium solubility of famotidine, mg/g Solvent [1, 10]: ND (“ND” means not detected, famotidine content was below 0.1 mg/g.)
Equilibrium solubility of famotidine, mg/g Total [1, 10]: ND (“ND” means not detected, famotidine content was below 0.1 mg/g.)
Equilibrium solubility of famotidine, mg/g Solvent [1, 11]: ND (“ND” means not detected, famotidine content was below 0.1 mg/g.)
Equilibrium solubility of famotidine, mg/g Total [1, 11]: ND (“ND” means not detected, famotidine content was below 0.1 mg/g.)
aqueous solubility [2]: poor aqueous solubility
lipophilicity [2]: poor lipophilicity
stability versus pH ([2]; liquid media): low stability outside a pH range of 6 to 7
